Reference: ChEMBL document CHEMBL1124876, “Organic phosphorus compounds. 5. (4-Benzothiazol-2-ylbenzyl)amidophosphonate as potent calcium antagonistic vasodilators” (J Med Chem, 1990)
The source made the active and inactive calls. The calls are words filed in the database; no cut-off is given here.

What was measured:
[1] = Partition coefficient (logP); assay type: physicochemical; settings: octanol/water
Canis familiaris [2] = assay: Coronary vasodilatory activity as increase in coronary flow was determined in dogs after 0.1 mg/kg i.v. administration of the compound; assay type: functional, Canis lupus familiaris; settings: route intravenous
Canis familiaris [3] = assay: Coronary vasodilatory activity as increase in coronary flow was determined in dogs after 0.1 mg/kg i.v. administration of the compound; (SE +/- 0.1); assay type: functional, Canis lupus familiaris; settings: route intravenous
Canis familiaris [4] = assay: Coronary vasodilatory activity as increase in coronary flow was determined in dogs after 0.1 mg/kg i.v. administration of the compound; (SE +/- 12.9); assay type: functional, Canis lupus familiaris; settings: route intravenous
Canis familiaris [5] = assay: Coronary vasodilatory activity as increase in coronary flow was determined in dogs after 0.1 mg/kg i.v. administration of the compound; (SE +/- 9.9); assay type: functional, Canis lupus familiaris; settings: route intravenous
Canis familiaris [6] = assay: Coronary vasodilatory activity as increase in coronary blood flow was determined in dogs after i.v. administration of the compound; assay type: functional, Canis lupus familiaris, Artery
Cavia porcellus [7] = organism: Cavia porcellus; assay: Calcium antagonistic activity in isolated guinea pig Tenia coli specimens; (SE +/- 0.06); assay type: functional; settings: read-out: pA2 (converted)
[8] = Lethal effect after per os administration in mouse for 7 days; assay type: toxicity; settings: in vivo, po
Canis familiaris [9] = assay: Ability to increase coronary blood flow after intra duodenal administration at 3 mg/kg in dog; (SE +/- 23); assay type: functional, Canis lupus familiaris, Blood/Heart; settings: route intraduodenal
Canis familiaris [10] = assay: Ability to increase coronary blood flow after intra duodenal administration at 3 mg/kg in dog; (SE +/- 24); assay type: functional, Canis lupus familiaris; settings: route intraduodenal
Canis familiaris [11] = assay: Coronary vasodilatory activity as increase in coronary flow was determined in dogs after 0.1 mg/kg i.v. administration of the compound; (SE +/- 9); assay type: functional, Canis lupus familiaris; settings: route intravenous
Cavia porcellus [12] = organism: Cavia porcellus; assay: Calcium antagonistic activity in isolated guinea pig Tenia coli specimens; (SE +/- 0.10); assay type: functional; settings: read-out: pA2 (converted)
Cavia porcellus [13] = organism: Cavia porcellus; assay: Calcium antagonistic activity in isolated guinea pig Tenia coli specimens; (SE +/- 0.13); assay type: functional; settings: read-out: pA2 (converted)
Canis familiaris [14] = assay: Coronary vasodilatory activity as increase in coronary flow was determined in dogs after 0.1 mg/kg i.v. administration of the compound; (SE +/- 22.2); assay type: functional, Canis lupus familiaris; settings: route intravenous
Canis familiaris [15] = assay: Coronary vasodilatory activity as increase in coronary flow was determined in dogs after 0.1 mg/kg i.v. administration of the compound; (SE +/- 7.4); assay type: functional, Canis lupus familiaris; settings: route intravenous
Canis familiaris [16] = assay: Coronary vasodilatory activity as increase in coronary flow was determined in dogs after 0.1 mg/kg i.v. administration of the compound; IA = Inactive; assay type: functional, organism-based; design: dose 0.1 mg/kg; settings: Canis lupus familiaris; at 0.1 mg/kg
Canis familiaris [17] = assay: Coronary vasodilatory activity as increase in coronary flow was determined in dogs after 0.1 mg/kg i.v. administration of the compound; (SE +/- 3.3); assay type: functional, Canis lupus familiaris; settings: route intravenous
Canis familiaris [18] = assay: Coronary vasodilatory activity as increase in coronary flow was determined in dogs after 0.1 mg/kg i.v. administration of the compound; (SE +/- 27); assay type: functional, Canis lupus familiaris; settings: route intravenous
Canis familiaris [19] = assay: Ability to increase coronary blood flow after intra duodenal administration at 3 mg/kg in dog; (SE +/- 38); assay type: functional, Canis lupus familiaris; settings: route intraduodenal
Canis familiaris [20] = assay: Coronary vasodilatory activity as increase in coronary flow was determined in dogs after 0.1 mg/kg i.v. administration of the compound; (SE +/- 8.2); assay type: functional, Canis lupus familiaris; settings: route intravenous
Canis familiaris [21] = assay: Coronary vasodilatory activity as increase in coronary flow was determined in dogs after 0.1 mg/kg i.v. administration of the compound; (SE +/- 6.6); assay type: functional, Canis lupus familiaris; settings: route intravenous
Canis familiaris [22] = assay: Coronary vasodilatory activity as increase in coronary flow was determined in dogs after 0.1 mg/kg i.v. administration of the compound; (SE +/- 5); assay type: functional, Canis lupus familiaris; settings: route intravenous
Canis familiaris [23] = assay: Ability to increase coronary blood flow after intra duodenal administration at 3 mg/kg in dog; (SE +/- 27); assay type: functional, Canis lupus familiaris; settings: route intraduodenal
Cavia porcellus [24] = organism: Cavia porcellus; assay: Calcium antagonistic activity in isolated guinea pig Tenia coli specimens; (SE +/- 0.08); assay type: functional; settings: read-out: pA2 (converted)
Canis familiaris [25] = assay: Coronary vasodilatory activity as increase in coronary flow was determined in dogs after 0.1 mg/kg i.v. administration of the compound; (SE +/- 13.1); assay type: functional, Canis lupus familiaris; settings: route intravenous
Cavia porcellus [26] = organism: Cavia porcellus; assay: Calcium antagonistic activity in isolated guinea pig Tenia coli specimens; (SE +/- 0.11); assay type: functional; settings: read-out: pA2 (converted)
Canis familiaris [27] = assay: Ability to increase coronary blood flow after intra duodenal administration at 3 mg/kg in dog; (SE +/- 21); assay type: functional, Canis lupus familiaris; settings: route intraduodenal

For `CCOC(=O)Cc1ccc(-c2nc3ccccc3s2)cc1`, which logP [1] is on record?
Its logP is 3.2.

With `CCOP(=O)(Cc1ccc(-c2nc3ccccc3s2)cc1)N1CCOCC1` (stereo not drawn) as the compound, how does the Max increase (Canis familiaris [2]) read?
Its Max increase is 69%.

For `CCOP(=O)(Cc1ccc(-c2nc3ccccc3s2)cc1)N(CC)CC` (stereo not drawn), which Max increase (Canis familiaris [3]) is on record?
Its Max increase is 79.7%.

With `CCOP(=O)(Cc1ccc(-c2nc3ccccc3s2)cc1)N1CCN(CC)C(=O)C1=O` (stereo not drawn) as the compound, how does the Max increase (Canis familiaris [4]) read?
The Max increase was 51.8%.

For `CCOP(=O)(Cc1ccc(-c2nc3ccccc3s2)cc1)N1CCCCCCC1=O` (stereo not drawn), which Max increase (Canis familiaris [5]) is on record?
The Max increase was 70.7%.

Which CBF-ID75 (Canis familiaris [6]) does the source give for `COc1ccc([C@@H]2Sc3ccccc3N(CCN(C)C)C(=O)[C@@H]2OC(C)=O)cc1.Cl` [DILTIAZEM HYDROCHLORIDE] here?
Its CBF-ID75 is 0.0771 mg/kg.

What about the Kb (Cavia porcellus [7]) of the same compound?
Its Kb is 50.1 nM.

What about the LD50 at 168 h [8] of the same compound?
Its LD50 at 168 h is 508 mg/kg.

What about the “Change in blood flow” value (Canis familiaris [9]) of the same compound?
The value was 52%.

With `Cc1ccc(-c2nc3ccccc3s2)cc1` as the compound, how does the logP [1] read?
The logP was 3.7.

Which results are given for `CCOP(=O)(Cc1ccc(-c2nc3ccccc3s2)cc1)N1CCCC1=O` (stereo not drawn)?
CBF-ID75 (Canis familiaris [6]): 0.0414 mg/kg; Change in blood flow (Canis familiaris [10]): 104%; logP [1]: 3; LD50 at 168 h [8]: 2110 mg/kg; Max increase (Canis familiaris [11]): 124.1%; Kb (Cavia porcellus [12]): 29.5 nM

For `CCNP(=O)(Cc1ccc(-c2nc3ccccc3s2)cc1)OCC` (stereo not drawn), which Max increase (Canis familiaris [2]) is on record?
Its Max increase is 31.2%.

Which results are given for `CCOP(=O)(Cc1ccc(-c2nc3ccccc3s2)cc1)N1CCOC1=O` (stereo not drawn)?
CBF-ID75 (Canis familiaris [6]): 0.0773 mg/kg; Kb (Cavia porcellus [13]): 25.7 nM; Max increase (Canis familiaris [14]): 141.4%; LD50 at 168 h [8]: 671 mg/kg

With `CCOP(=O)(Cc1ccc(-c2nc3ccccc3s2)cc1)N1CCCCCC1` (stereo not drawn) as the compound, how does the Max increase (Canis familiaris [2]) read?
Its Max increase is 49.3%.

For `CCOP(=O)(Cc1ccc(-c2nc3ccccc3s2)cc1)N1CCCC1=S` (stereo not drawn), which Max increase (Canis familiaris [15]) is on record?
Its Max increase is 64.9%.

With `CCOP(=O)(Cc1ccc(-c2nc3ccccc3s2)cc1)N1CCSC1=S` (stereo not drawn) as the compound, how does the Max increase (Canis familiaris [15]) read?
The Max increase was 51.8%.

For `CCOP(=O)(Cc1ccc(-c2nc3ccccc3s2)cc1)N1CCN(C)CC1` (stereo not drawn), which Max increase (Canis familiaris [2]) is on record?
Its Max increase is 49.3%.

For `CCOP(=O)(Cc1ccc(-c2nc3ccccc3s2)cc1)OC` (stereo not drawn), which logP [1] is on record?
Its logP is 3.5.

With `CCOP(=O)(Cc1ccc(-c2nc3ccccc3s2)cc1)NCc1ccccc1` (stereo not drawn) as the compound, how does the Max increase (Canis familiaris [16]) read?
The Max increase was “inactive”.

Which Max increase (Canis familiaris [2]) does the source give for `CCOP(=O)(Cc1ccc(-c2nc3ccccc3s2)cc1)N1CC=CC1` (stereo not drawn) here?
Its Max increase is 80.6%.

Which Max increase (Canis familiaris [2]) does the source give for `CCOP(=O)(Cc1ccc(-c2nc3ccccc3s2)cc1)NCCCl` (stereo not drawn) here?
The Max increase was 31.2%.

Which Max increase (Canis familiaris [17]) does the source give for `CCOP(=O)(Cc1ccc(-c2nc3ccccc3s2)cc1)N1CCN(Cc2ccc(OC)c(OC)c2OC)CC1.O=C(O)/C=C/C(=O)O` (stereo not drawn) here?
Its Max increase is 103.5%.

Which Max increase (Canis familiaris [2]) does the source give for `CCOP(=O)(Cc1ccc(-c2nc3ccccc3s2)cc1)NC(C)C` (stereo not drawn) here?
The Max increase was 73.2%.

For `CCOP(=O)(Cc1ccc(-c2nc3ccccc3s2)cc1)N1CCSC1=O` (stereo not drawn), which CBF-ID75 (Canis familiaris [6]) is on record?
The CBF-ID75 was 0.0504 mg/kg.

What about the LD50 at 168 h [8] of the same compound?
Its LD50 at 168 h is greater than 1000 mg/kg.

What about the Max increase (Canis familiaris [18]) of the same compound?
Its Max increase is 155.3%.

With `CCOP(=O)(Cc1ccc(-c2nc3ccccc3s2)cc1)N1CCCCCC1=O` (stereo not drawn) as the compound, how does the CBF-ID75 (Canis familiaris [6]) read?
The CBF-ID75 was 0.055 mg/kg.

And the LD50 at 168 h [8]?
Its LD50 at 168 h is greater than 1000 mg/kg.

And the Max increase (Canis familiaris [11])?
The Max increase was 102.8%.

And the “Change in blood flow” value (Canis familiaris [19])?
The value was 69%.

And the Kb (Cavia porcellus [12])?
The Kb was 34.7 nM.

With `CCOP(=O)(Cc1ccc(-c2nc3ccccc3s2)cc1)N1CCCCC1` (stereo not drawn) as the compound, how does the Max increase (Canis familiaris [20]) read?
Its Max increase is 81.3%.

For `CCOP(=O)(Cc1ccc(-c2nc3ccccc3s2)cc1)N1CCCCC1=S` (stereo not drawn), which Max increase (Canis familiaris [21]) is on record?
Its Max increase is 24.7%.

What does the source list for `CCOP(=O)(Cc1ccc(-c2nc3ccccc3s2)cc1)OCC` [FOSTEDIL]?
CBF-ID75 (Canis familiaris [6]): 0.116 mg/kg; Max increase (Canis familiaris [22]): 82.2%; Change in blood flow (Canis familiaris [23]): 92%; LD50 at 168 h [8]: 1190 mg/kg; Kb (Cavia porcellus [24]): 61.7 nM

For `CCOP(=O)(Cc1ccc(-c2nc3ccccc3s2)cc1)N1CCCC1` (stereo not drawn), which Max increase (Canis familiaris [25]) is on record?
Its Max increase is 101.1%.

With `CCOP(=O)(Cc1ccc(-c2nc3ccccc3s2)cc1)NC1CC1` (stereo not drawn) as the compound, how does the Max increase (Canis familiaris [2]) read?
Its Max increase is 41.1%.

Which results are given for `CCOP(=O)(Cc1ccc(-c2nc3ccccc3s2)cc1)N1CCCCC1=O` (stereo not drawn)?
Kb (Cavia porcellus [26]): 35.5 nM; CBF-ID75 (Canis familiaris [6]): 0.0552 mg/kg; LD50 at 168 h [8]: > 1000 mg/kg; Max increase (Canis familiaris [15]): 101.9%; Change in blood flow (Canis familiaris [27]): 40%
